Assay results from ChEMBL document CHEMBL1201862, “PubChem BioAssay data set” (2004).
Active and inactive are the calls of the source.

Experiments:
[1] = viability of HCT116 lacking mutant beta-catenin – cell-based, human colon tumor, dose response (AID 1045); type: functional;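 further: HCT116 colon tumor cells with beta catenin knocked out; cells exposed to compound for 60 hours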
[2] = viability of PTEN-deleted HCT116 cells – cell-based, HCT116 PTEN knockout, dose response (AID 1047); type: functional;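 further: HCT116 colon tumor cells with PTEN knocked out; cells exposed to compound for 60 hours before readout; potency for loss of cell viability measured by luminescence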
[3] = molecular target: Glucose-6-phosphate 1-dehydrogenase (Homo sapiens, UniProt P11413); assay: inhibition of Homo sapiens G6PD, dose series – biochemical, fluorescence, selectivity assay for P. falciparum G6PD inhibitor project, dose response (AID 504792); type: functional
[4] = molecular target: T1, Short transient receptor potential channel 4 (Mus musculus, UniProt Q9QUQ5); assay: block of DAMGO-driven TRPC4 calcium entry – cell-based, HEK293 TRPC4/mu-opioid, Fluo-4 calcium, dose response (AID 434942); type: functional;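 further: potency of inhibitors blocking the TRPC4 calcium response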
T1 sequence (Q9QUQ5 whole entry): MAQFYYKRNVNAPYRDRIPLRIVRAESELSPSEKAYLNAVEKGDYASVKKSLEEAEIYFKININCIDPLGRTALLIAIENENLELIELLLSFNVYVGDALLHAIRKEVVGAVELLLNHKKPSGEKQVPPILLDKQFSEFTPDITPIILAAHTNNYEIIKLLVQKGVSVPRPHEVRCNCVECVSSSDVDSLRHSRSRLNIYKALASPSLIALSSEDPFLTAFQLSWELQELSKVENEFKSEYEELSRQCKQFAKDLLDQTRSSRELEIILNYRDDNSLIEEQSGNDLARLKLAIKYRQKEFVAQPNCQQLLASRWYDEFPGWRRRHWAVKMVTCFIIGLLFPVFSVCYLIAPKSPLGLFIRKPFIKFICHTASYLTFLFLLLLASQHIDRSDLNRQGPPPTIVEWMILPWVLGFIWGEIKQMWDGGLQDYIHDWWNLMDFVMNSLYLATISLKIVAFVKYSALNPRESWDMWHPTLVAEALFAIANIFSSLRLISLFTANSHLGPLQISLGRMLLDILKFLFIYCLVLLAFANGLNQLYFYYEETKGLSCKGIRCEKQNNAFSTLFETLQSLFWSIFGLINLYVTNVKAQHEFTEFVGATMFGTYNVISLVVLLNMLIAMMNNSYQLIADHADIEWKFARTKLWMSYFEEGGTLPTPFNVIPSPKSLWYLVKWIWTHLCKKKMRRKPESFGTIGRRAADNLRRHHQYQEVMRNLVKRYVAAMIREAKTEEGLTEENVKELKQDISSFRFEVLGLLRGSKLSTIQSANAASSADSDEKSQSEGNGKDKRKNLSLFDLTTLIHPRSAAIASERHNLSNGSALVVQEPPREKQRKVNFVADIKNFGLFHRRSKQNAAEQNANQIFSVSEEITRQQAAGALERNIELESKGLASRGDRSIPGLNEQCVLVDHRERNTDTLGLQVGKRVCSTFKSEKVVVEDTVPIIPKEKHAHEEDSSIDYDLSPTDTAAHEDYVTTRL

[5] = molecular target: Peroxisome proliferator-activated receptor gamma/Nuclear receptor coactivator 1 (Homo sapiens, UniProt P37231); assay: TR-FRET dose response biochemical High Throughput Screening assay for agonists of the steroid receptor coactivator 1 (SRC-1) recruitment by the peroxisome proliferator-activated receptor gamma (PPAR gamma): non-selective agonists. [Related pubchem assays (depositor defined):AID1300, AID1808, AID504735, AID631]; type: protein assay
Chain of Peroxisome proliferator-activated receptor gamma/Nuclear receptor coactivator 1 (P37231 whole entry): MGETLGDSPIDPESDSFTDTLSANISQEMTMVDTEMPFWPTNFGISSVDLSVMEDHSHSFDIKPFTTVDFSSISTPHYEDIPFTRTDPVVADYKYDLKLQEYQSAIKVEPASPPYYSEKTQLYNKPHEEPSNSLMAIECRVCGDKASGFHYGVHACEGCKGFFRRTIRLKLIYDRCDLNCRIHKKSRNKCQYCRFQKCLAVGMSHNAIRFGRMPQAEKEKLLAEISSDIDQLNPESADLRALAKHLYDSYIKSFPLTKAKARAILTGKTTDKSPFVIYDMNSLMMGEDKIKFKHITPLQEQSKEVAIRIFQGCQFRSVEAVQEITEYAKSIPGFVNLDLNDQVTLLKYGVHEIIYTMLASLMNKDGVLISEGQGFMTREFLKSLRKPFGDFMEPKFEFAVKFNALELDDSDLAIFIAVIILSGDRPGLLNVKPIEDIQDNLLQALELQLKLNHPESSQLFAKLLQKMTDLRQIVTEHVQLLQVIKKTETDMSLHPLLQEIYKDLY
Chain of Peroxisome proliferator-activated receptor gamma/Nuclear receptor coactivator 1 (Q15788 whole entry, further chain): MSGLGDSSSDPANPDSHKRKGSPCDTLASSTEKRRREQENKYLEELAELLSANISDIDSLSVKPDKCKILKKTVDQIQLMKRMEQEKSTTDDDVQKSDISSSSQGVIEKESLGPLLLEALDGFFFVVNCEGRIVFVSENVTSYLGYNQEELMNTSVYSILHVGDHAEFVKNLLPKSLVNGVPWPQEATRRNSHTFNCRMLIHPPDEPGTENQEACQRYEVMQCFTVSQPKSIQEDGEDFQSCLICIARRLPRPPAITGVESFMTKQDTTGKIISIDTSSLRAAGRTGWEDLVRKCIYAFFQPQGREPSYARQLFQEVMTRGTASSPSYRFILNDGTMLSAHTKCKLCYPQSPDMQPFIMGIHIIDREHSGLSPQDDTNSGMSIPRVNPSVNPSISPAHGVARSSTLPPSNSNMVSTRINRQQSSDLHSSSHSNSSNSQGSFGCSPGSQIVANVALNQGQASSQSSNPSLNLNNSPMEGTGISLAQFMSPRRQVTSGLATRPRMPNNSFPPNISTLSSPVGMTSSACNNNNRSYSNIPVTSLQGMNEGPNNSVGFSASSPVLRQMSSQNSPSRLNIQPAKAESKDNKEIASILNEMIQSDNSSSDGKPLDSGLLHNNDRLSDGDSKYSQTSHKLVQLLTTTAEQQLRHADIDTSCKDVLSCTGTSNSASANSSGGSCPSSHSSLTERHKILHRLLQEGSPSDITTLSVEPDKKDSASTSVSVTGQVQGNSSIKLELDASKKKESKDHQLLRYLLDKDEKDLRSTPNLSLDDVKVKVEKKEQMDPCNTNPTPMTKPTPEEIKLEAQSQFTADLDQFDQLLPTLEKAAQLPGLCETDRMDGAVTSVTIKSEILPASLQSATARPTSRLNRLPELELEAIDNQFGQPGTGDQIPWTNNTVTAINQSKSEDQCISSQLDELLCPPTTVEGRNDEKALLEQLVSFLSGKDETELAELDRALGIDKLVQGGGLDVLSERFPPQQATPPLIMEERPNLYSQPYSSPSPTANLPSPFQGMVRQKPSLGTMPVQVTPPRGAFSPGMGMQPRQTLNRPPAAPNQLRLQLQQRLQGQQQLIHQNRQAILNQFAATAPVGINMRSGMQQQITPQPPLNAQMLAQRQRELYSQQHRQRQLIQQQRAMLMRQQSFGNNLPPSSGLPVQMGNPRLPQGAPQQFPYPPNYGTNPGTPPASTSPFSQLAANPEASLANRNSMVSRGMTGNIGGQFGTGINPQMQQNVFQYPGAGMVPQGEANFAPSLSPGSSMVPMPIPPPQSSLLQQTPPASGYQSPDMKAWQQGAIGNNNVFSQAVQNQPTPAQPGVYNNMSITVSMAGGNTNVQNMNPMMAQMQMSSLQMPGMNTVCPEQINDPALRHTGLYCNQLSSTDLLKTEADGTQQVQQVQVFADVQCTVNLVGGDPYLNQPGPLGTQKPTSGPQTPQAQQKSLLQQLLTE

[6] = molecular target: Peroxisome proliferator-activated receptor gamma/Nuclear receptor coactivator 2 (Homo sapiens, UniProt P37231); assay: (§1) TR-FRET dose response biochemical High Throughput Screening assay for agonists of the steroid receptor coactivator 2 (SRC-2) recruitment by the peroxisome proliferator-activated receptor gamma (PPAR gamma): non-selective agonists. [Related pubchem assays: 1297, 1032 ]; type: functional
Chain of Peroxisome proliferator-activated receptor gamma/Nuclear receptor coactivator 2 (P37231 whole entry): as the sequence (P37231 whole entry) above
Chain of Peroxisome proliferator-activated receptor gamma/Nuclear receptor coactivator 2 (Q15596 whole entry, further chain): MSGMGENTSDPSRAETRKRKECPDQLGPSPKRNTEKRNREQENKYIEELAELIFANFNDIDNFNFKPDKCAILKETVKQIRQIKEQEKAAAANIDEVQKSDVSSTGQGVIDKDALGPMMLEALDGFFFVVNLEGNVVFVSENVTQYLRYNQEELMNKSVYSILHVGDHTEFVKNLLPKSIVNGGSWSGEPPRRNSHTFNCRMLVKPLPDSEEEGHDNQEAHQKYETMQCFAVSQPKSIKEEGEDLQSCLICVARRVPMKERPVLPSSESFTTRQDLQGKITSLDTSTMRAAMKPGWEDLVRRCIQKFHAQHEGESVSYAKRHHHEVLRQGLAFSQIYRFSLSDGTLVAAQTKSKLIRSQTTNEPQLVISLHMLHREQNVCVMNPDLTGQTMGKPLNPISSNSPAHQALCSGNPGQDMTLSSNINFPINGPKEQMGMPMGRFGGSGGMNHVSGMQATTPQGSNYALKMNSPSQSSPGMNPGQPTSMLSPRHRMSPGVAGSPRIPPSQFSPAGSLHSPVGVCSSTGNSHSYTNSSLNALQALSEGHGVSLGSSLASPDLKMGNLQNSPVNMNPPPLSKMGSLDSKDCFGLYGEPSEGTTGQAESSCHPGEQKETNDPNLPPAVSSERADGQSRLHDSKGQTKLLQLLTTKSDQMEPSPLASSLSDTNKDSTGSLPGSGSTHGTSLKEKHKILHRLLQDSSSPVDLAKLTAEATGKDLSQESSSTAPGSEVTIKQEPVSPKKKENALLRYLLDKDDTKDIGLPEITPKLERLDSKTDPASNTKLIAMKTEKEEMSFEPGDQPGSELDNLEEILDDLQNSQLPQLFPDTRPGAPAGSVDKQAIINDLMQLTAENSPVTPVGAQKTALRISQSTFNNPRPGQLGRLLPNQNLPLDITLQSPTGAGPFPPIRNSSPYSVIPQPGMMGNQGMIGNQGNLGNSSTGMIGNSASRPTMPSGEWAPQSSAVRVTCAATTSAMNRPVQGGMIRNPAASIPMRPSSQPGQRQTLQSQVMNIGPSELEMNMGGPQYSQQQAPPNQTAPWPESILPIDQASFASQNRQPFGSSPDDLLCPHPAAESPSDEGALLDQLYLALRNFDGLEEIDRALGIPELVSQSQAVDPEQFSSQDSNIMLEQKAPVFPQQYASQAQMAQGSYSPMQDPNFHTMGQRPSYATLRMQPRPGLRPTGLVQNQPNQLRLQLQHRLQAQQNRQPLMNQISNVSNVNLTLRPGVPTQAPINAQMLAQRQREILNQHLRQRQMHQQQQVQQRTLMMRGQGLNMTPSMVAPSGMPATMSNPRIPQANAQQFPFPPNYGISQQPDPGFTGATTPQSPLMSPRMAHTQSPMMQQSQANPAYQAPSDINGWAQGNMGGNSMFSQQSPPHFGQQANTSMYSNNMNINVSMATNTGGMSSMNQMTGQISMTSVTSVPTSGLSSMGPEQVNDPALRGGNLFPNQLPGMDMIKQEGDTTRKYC

Genome polyprotein = Genome polyprotein (dengue virus type 2, UniProt P29990); assay: flavivirus cap methylation enzyme inhibition – biochemical, confirmation dose response, primary screen (AID 588689); type: functional
Chain of Genome polyprotein (P29990 2492-3391 limits assumed): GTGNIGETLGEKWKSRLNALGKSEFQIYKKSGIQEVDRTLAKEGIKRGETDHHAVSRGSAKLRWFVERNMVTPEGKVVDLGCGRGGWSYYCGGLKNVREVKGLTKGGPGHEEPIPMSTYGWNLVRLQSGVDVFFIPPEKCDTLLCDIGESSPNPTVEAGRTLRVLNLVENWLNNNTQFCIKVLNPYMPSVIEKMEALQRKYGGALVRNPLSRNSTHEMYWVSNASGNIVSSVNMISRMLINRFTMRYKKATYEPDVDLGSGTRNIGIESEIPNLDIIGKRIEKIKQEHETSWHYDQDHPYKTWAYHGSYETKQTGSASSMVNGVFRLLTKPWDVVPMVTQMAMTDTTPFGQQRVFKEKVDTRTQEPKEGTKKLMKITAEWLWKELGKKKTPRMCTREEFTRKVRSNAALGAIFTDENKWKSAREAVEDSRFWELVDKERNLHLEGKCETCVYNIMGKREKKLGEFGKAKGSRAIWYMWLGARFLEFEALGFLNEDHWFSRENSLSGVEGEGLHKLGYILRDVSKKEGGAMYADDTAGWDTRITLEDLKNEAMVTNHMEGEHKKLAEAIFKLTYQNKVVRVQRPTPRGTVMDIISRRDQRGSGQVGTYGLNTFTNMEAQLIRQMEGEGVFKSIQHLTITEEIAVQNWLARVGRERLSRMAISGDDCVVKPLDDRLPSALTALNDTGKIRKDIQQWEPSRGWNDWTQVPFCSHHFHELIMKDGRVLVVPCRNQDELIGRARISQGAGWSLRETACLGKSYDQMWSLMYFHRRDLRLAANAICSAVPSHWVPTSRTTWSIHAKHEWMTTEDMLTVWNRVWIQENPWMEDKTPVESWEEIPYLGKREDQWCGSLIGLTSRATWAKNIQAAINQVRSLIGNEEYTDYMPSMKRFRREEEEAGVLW

[7] = molecular target: Peroxisome proliferator-activated receptor gamma/Nuclear receptor coactivator 3 (Homo sapiens, UniProt P37231); assay: as §1, with “3 (SRC-3)” for “2 (SRC-2)”, “1301 (Confirmation screen.), 1048 (Primary screen.)]” for “1297, 1032 ]”; type: functional
[8] = molecular target: T2, Mannose-6-phosphate isomerase (Homo sapiens, UniProt P34949); assay: MPI inhibition at elevated mannose 6-phosphate – biochemical, fluorescence intensity, high mannose 6-phosphate, primary screen (AID 1220)
T2 sequence (P34949 whole entry): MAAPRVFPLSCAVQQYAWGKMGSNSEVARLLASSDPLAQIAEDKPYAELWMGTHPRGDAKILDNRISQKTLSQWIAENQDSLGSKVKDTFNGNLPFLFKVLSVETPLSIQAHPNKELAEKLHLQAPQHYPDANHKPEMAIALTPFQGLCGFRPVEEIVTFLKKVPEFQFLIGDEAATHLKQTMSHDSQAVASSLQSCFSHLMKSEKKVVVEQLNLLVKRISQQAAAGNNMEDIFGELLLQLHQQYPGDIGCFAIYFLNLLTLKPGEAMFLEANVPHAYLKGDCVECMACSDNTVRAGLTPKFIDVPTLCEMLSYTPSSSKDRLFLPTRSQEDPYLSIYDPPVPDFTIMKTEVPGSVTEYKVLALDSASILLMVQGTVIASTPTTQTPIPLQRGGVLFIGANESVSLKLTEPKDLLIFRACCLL

[9] = NIH3T3 cell viability loss – ATP luminescence, mouse fibroblasts, counter-screen, dose response (AID 2010); type: functional, cell-based; conditions: NIH3T3;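 further: cells exposed to compound for about 90 hours before reading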
[10] = Trypanosoma cruzi growth suppression in host cells – NIH3T3 host cells, beta-gal luminescence, confirmation (AID 2044); type: functional, cell-based;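 further: intracellular parasites grown in NIH/3T3 mouse fibroblasts as host cells; luminescent beta-galactosidase reporter signal from transgenic T. cruzi replicating inside host cells; inhibitors lower the luminescence signal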
[11] = molecular target: DNA dC->dU-editing enzyme APOBEC-3G (Homo sapiens, UniProt Q9HC16); assay: Dose Response confirmation of small molecule APOBEC3G DNA Deaminase Inhibitors via a fluorescence-based single-stranded DNA deaminase assay. [Related pubchem assays (depositor defined):AID493012, AID493028]; type: functional
Fatty acid synthase [12] = molecular target: T3, Fatty acid synthase (Homo sapiens, UniProt P49327); assay: inhibition of human FAS-TE enzyme activity – biochemical, endpoint fluorescence intensity, uHTS hits, dose response (AID 624327); type: functional;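 further: fluorescence from hydrolysis of an O-methyl fluorescein acyl ester substrate by the enzyme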
Fatty acid synthase [13] = molecular target: T3, Fatty acid synthase; assay: inhibition of human FAS-TE enzyme activity – biochemical, kinetic fluorescence intensity, dose response (AID 624326); type: functional;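 further: rate of fluorescence rise from hydrolysis of a fluorogenic O-methyl fluorescein ester substrate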
[14] = A cytotoxicity screen of small molecule inhibitors of the PhoP region in Salmonella typhi identified in the primary screen. [Related pubchem assays: 1850, 1864, 1985 ]; type: functional

| Compound | EC50 [5] | EC50 [6] | IC50 (Genome polyprotein) | EC50 [7] | further results |
| --- | --- | --- | --- | --- | --- |
| CC1=CC(=NOC(=O)/C=C/c2ccccc2)C=C(C)C1=O | – | – | – | – | EC50 [1]: 13.6 µM (active); EC50 [2]: 14 µM (active); IC50 [3]: > 80 µM (inactive) |
| Cc1ccc(C)c2c(N)c3c(nc12)CCCCC3.O=C(O)c1cncc(Br)c1 | – | – | – | – | EC50 [4]: 0.944 µM (active) |
| COc1cc(/C=C(\C#N)C(=O)Nc2ccccc2C(=O)O)cc(Cl)c1OC | > 79.4 µM (inactive) | > 79.4 µM (not active) | 60.6 µM (active) | 8.27 µM (active) | – |
| CC(Nc1ccc(Br)cn1)c1cc(Cl)ccc1O (centres undefined) | 6.3 µM (active) | 4.73 µM (active) | – | 3.26 µM (active) | – |
| O=C(Nc1nc2c(s1)COc1ccccc1-2)c1cccs1 | 28.5 µM (inactive) | 19.7 µM (not active) | – | > 79.4 µM (not active) | – |
| Cc1nc([N+](=O)[O-])nn1C12CC3CC(CC(Br)(C3)C1)C2 | – | – | – | – | IC50 [8]: 26.3 µM (active); EC50 [9]: > 60 µM (not active); EC50 [10]: 0.105 µM (active); IC50 [11]: 49.6 µM (active) |
| Cc1cccc(N2CCN(Cc3ccoc3)CC2)c1C | – | – | – | – | EC50 [4]: 0.668 µM (active) |
| Cc1ccc(-c2csc3nc(SCC(=O)Nc4ccc(Cl)c(C(=O)O)c4)nc(O)c23)cc1 | – | – | 37 µM (active) | – | – |
| Cc1ccc(S(=O)(=O)Nc2nc(-c3ccc(F)cc3)cs2)cc1 | – | – | 70.6 µM (active) | – | – |
| Cc1cccc(C(=O)NCCC(=O)Nc2ccc(F)c([N+](=O)[O-])c2)c1 | – | – | – | – | IC50 (Fatty acid synthase [12]): 12.3 µM (active); IC50 (Fatty acid synthase [13]): 9.57 µM (active); EC50 [14]: > 50 µM (active) |
